Results as given in PubChem BioAssay AID1963841 (Molecular Pharmacology Branch, DTP, NCI, 2024).

System: 439559-082-T-J2-PDC spheroid viability
Test: Anticancer human tumor 439559-082-T-J2-PDC patient-derived colon adenocarcinoma cell line growth inhibition [POLQ]
Conditions: spheroids with HUVEC and MSC; for IC50: curve of first compound; for viability, T/C: stronger effect = lower value
How it was run: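 Three-cell-type spheroids modelling solid tumor plus stroma served as the readout system; POL inhibitors were tested individually and in combination, concentration ranges set by clinical Cmax where known.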

[1] = second compound 0.0316 µM, first compound 0.0316 µM
[2] = second compound 0.0316 µM, first compound 0.1 µM
[3] = second compound 0.0316 µM, first compound 0.316 µM
[4] = second compound 0.0316 µM, first compound 1 µM
[5] = second compound 0.0316 µM, first compound 3.16 µM
[6] = second compound 0.0316 µM, first compound 10 µM
[7] = second compound 0.1 µM, first compound 0.0316 µM
[8] = second compound 0.1 µM, first compound 0.1 µM
[9] = second compound 0.1 µM, first compound 0.316 µM
[10] = second compound 0.1 µM, first compound 1 µM
[11] = second compound 0.1 µM, first compound 3.16 µM
[12] = second compound 0.1 µM, first compound 10 µM
[13] = second compound 0.316 µM, first compound 0.0316 µM
[14] = second compound 0.316 µM, first compound 0.1 µM
[15] = second compound 0.316 µM, first compound 0.316 µM
[16] = second compound 0.316 µM, first compound 1 µM
[17] = second compound 0.316 µM, first compound 3.16 µM
[18] = second compound 0.316 µM, first compound 10 µM
[19] = second compound 1 µM, first compound 0.0316 µM
[20] = second compound 1 µM, first compound 0.1 µM
[21] = second compound 1 µM, first compound 0.316 µM
[22] = second compound 1 µM, first compound 1 µM
[23] = second compound 1 µM, first compound 3.16 µM
[24] = second compound 1 µM, first compound 10 µM
[25] = second compound 3.16 µM, first compound 0.0316 µM
[26] = second compound 3.16 µM, first compound 0.1 µM
[27] = second compound 3.16 µM, first compound 0.316 µM
[28] = second compound 3.16 µM, first compound 1 µM
[29] = second compound 3.16 µM, first compound 3.16 µM
[30] = second compound 3.16 µM, first compound 10 µM
[31] = second compound 10 µM, first compound 0.0316 µM
[32] = second compound 10 µM, first compound 0.1 µM
[33] = second compound 10 µM, first compound 0.316 µM
[34] = second compound 10 µM, first compound 1 µM
[35] = second compound 10 µM, first compound 3.16 µM
[36] = second compound 10 µM, first compound 10 µM
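Also: spheroids exposed to compounds for seven days before readout.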
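For viability, T/C in this document: 100% = DMSO vehicle control viability.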

CC(C)n1c(=O)n(C)c2cnc3cc(F)c(-c4ccc(OCCCN5CCCCC5)nc4)cc3c21 + Nc1ccc(C#CCN(C(=O)Cc2ncc(C(F)(F)F)cc2C(F)(F)F)c2ccc(F)cc2)nn1
IC50 (second compound 0.0316 µM): > 10 µM
IC50 (second compound 0.1 µM): > 10 µM
IC50 (second compound 0.316 µM): > 10 µM
IC50 (second compound 1 µM): > 10 µM
IC50 (second compound 3.16 µM): > 10 µM
IC50 (second compound 10 µM): > 10 µM
viability, T/C [1]: 88.2%
viability, T/C [2]: 110%
viability, T/C [3]: 113%
viability, T/C [4]: 105%
viability, T/C [5]: 110%
viability, T/C [6]: 96.7%
viability, T/C [7]: 106%
viability, T/C [8]: 113%
viability, T/C [9]: 104%
viability, T/C [10]: 122%
viability, T/C [11]: 102%
viability, T/C [12]: 112%
viability, T/C [13]: 103%
viability, T/C [14]: 100%
viability, T/C [15]: 102%
viability, T/C [16]: 109%
viability, T/C [17]: 110%
viability, T/C [18]: 105%
viability, T/C [19]: 111%
viability, T/C [20]: 99.7%
viability, T/C [21]: 101%
viability, T/C [22]: 116%
viability, T/C [23]: 89.3%
viability, T/C [24]: 113%
viability, T/C [25]: 98.1%
viability, T/C [26]: 103%
viability, T/C [27]: 101%
viability, T/C [28]: 115%
viability, T/C [29]: 102%
viability, T/C [30]: 126%
viability, T/C [31]: 102%
viability, T/C [32]: 102%
viability, T/C [33]: 110%
viability, T/C [34]: 96.7%
viability, T/C [35]: 127%
viability, T/C [36]: 117%

CC1COCCN1c1cc(-c2ccnn2C)c2ccnc(-c3ccn[nH]3)c2n1 (stereo not given) + Nc1ccc(C#CCN(C(=O)Cc2ncc(C(F)(F)F)cc2C(F)(F)F)c2ccc(F)cc2)nn1
IC50 (second compound 0.0316 µM): 0.475 µM
IC50 (second compound 0.1 µM): > 10 µM
IC50 (second compound 0.316 µM): > 10 µM
IC50 (second compound 1 µM): 0.981 µM
IC50 (second compound 3.16 µM): 0.313 µM
IC50 (second compound 10 µM): 0.293 µM
viability, T/C [1]: 105%
viability, T/C [2]: 82.9%
viability, T/C [3]: 50.7%
viability, T/C [4]: 41.2%
viability, T/C [5]: 57%
viability, T/C [6]: 49.1%
viability, T/C [7]: 105%
viability, T/C [8]: 97.1%
viability, T/C [9]: 57.5%
viability, T/C [10]: 48.9%
viability, T/C [11]: 55.8%
viability, T/C [12]: 50.3%
viability, T/C [13]: 105%
viability, T/C [14]: 89.5%
viability, T/C [15]: 52.9%
viability, T/C [16]: 49.9%
viability, T/C [17]: 57.1%
viability, T/C [18]: 52.3%
viability, T/C [19]: 108%
viability, T/C [20]: 84.7%
viability, T/C [21]: 60.1%
viability, T/C [22]: 42.4%
viability, T/C [23]: 56.8%
viability, T/C [24]: 46%
viability, T/C [25]: 111%
viability, T/C [26]: 78.1%
viability, T/C [27]: 50.1%
viability, T/C [28]: 43.1%
viability, T/C [29]: 52.2%
viability, T/C [30]: 47.9%
viability, T/C [31]: 93.3%
viability, T/C [32]: 74.3%
viability, T/C [33]: 47.4%
viability, T/C [34]: 48.7%
viability, T/C [35]: 54.2%
viability, T/C [36]: 42.8%

CC1COCCN1c1cc(C2(S(C)(=N)=O)CC2)nc(-c2ccnc3[nH]ccc23)n1 (stereo not given) + Nc1ccc(C#CCN(C(=O)Cc2ncc(C(F)(F)F)cc2C(F)(F)F)c2ccc(F)cc2)nn1
IC50 (second compound 0.0316 µM): > 10 µM
IC50 (second compound 0.1 µM): > 10 µM
IC50 (second compound 0.316 µM): > 10 µM
IC50 (second compound 1 µM): > 10 µM
IC50 (second compound 3.16 µM): > 10 µM
IC50 (second compound 10 µM): > 10 µM
viability, T/C [1]: 98.7%
viability, T/C [2]: 98.4%
viability, T/C [3]: 88.9%
viability, T/C [4]: 95.8%
viability, T/C [5]: 89%
viability, T/C [6]: 74.7%
viability, T/C [7]: 99.4%
viability, T/C [8]: 91%
viability, T/C [9]: 96.7%
viability, T/C [10]: 79.6%
viability, T/C [11]: 84.1%
viability, T/C [12]: 71.5%
viability, T/C [13]: 94.5%
viability, T/C [14]: 115%
viability, T/C [15]: 96.3%
viability, T/C [16]: 90.8%
viability, T/C [17]: 77%
viability, T/C [18]: 70.5%
viability, T/C [19]: 98.3%
viability, T/C [20]: 105%
viability, T/C [21]: 98%
viability, T/C [22]: 96.4%
viability, T/C [23]: 74.8%
viability, T/C [24]: 65.3%
viability, T/C [25]: 94.1%
viability, T/C [26]: 98.9%
viability, T/C [27]: 95.3%
viability, T/C [28]: 76%
viability, T/C [29]: 83.7%
viability, T/C [30]: 67.5%
viability, T/C [31]: 99.3%
viability, T/C [32]: 101%
viability, T/C [33]: 86.8%
viability, T/C [34]: 94.7%
viability, T/C [35]: 84.9%
viability, T/C [36]: 72%

COc1ccc([C@@H](O)c2cc(-c3ncnc4cc(N5CCOCC5)ccc34)c(F)cc2Cl)nn1 + Nc1ccc(C#CCN(C(=O)Cc2ncc(C(F)(F)F)cc2C(F)(F)F)c2ccc(F)cc2)nn1
IC50 (second compound 0.0316 µM): > 10 µM
IC50 (second compound 0.1 µM): > 10 µM
IC50 (second compound 0.316 µM): > 10 µM
IC50 (second compound 1 µM): > 10 µM
IC50 (second compound 3.16 µM): > 10 µM
IC50 (second compound 10 µM): > 10 µM
viability, T/C [1]: 105%
viability, T/C [2]: 86%
viability, T/C [3]: 89.1%
viability, T/C [4]: 89.4%
viability, T/C [5]: 84%
viability, T/C [6]: 87.5%
viability, T/C [7]: 102%
viability, T/C [8]: 93.2%
viability, T/C [9]: 92.7%
viability, T/C [10]: 88.1%
viability, T/C [11]: 78%
viability, T/C [12]: 87.3%
viability, T/C [13]: 119%
viability, T/C [14]: 105%
viability, T/C [15]: 104%
viability, T/C [16]: 79.5%
viability, T/C [17]: 88.9%
viability, T/C [18]: 81%
viability, T/C [19]: 95%
viability, T/C [20]: 106%
viability, T/C [21]: 85.2%
viability, T/C [22]: 83.7%
viability, T/C [23]: 86.1%
viability, T/C [24]: 86.3%
viability, T/C [25]: 90.1%
viability, T/C [26]: 107%
viability, T/C [27]: 90.7%
viability, T/C [28]: 80.2%
viability, T/C [29]: 83.7%
viability, T/C [30]: 87.8%
viability, T/C [31]: 94.1%
viability, T/C [32]: 90%
viability, T/C [33]: 90.1%
viability, T/C [34]: 99.7%
viability, T/C [35]: 81.8%
viability, T/C [36]: 77.4%

Cn1ncnc1[C@H]1c2n[nH]c(=O)c3cc(F)cc(c23)N[C@@H]1c1ccc(F)cc1 + Nc1ccc(C#CCN(C(=O)Cc2ncc(C(F)(F)F)cc2C(F)(F)F)c2ccc(F)cc2)nn1
IC50 (second compound 0.0316 µM): > 0.1 µM
IC50 (second compound 0.1 µM): > 0.1 µM
IC50 (second compound 0.316 µM): > 0.1 µM
IC50 (second compound 1 µM): > 0.1 µM
IC50 (second compound 3.16 µM): > 0.1 µM
IC50 (second compound 10 µM): > 0.1 µM
viability, T/C (second compound 0.0316 µM, first compound 0.000316 µM): 91.8%
viability, T/C (second compound 0.0316 µM, first compound 0.001 µM): 104%
viability, T/C (second compound 0.0316 µM, first compound 0.00316 µM): 89.9%
viability, T/C (second compound 0.0316 µM, first compound 0.01 µM): 103%
viability, T/C [1]: 101%
viability, T/C [2]: 91.7%
viability, T/C (second compound 0.1 µM, first compound 0.000316 µM): 103%
viability, T/C (second compound 0.1 µM, first compound 0.001 µM): 88.9%
viability, T/C (second compound 0.1 µM, first compound 0.00316 µM): 86.6%
viability, T/C (second compound 0.1 µM, first compound 0.01 µM): 93.2%
viability, T/C [7]: 93.1%
viability, T/C [8]: 89.1%
viability, T/C (second compound 0.316 µM, first compound 0.000316 µM): 99.4%
viability, T/C (second compound 0.316 µM, first compound 0.001 µM): 112%
viability, T/C (second compound 0.316 µM, first compound 0.00316 µM): 90.2%
viability, T/C (second compound 0.316 µM, first compound 0.01 µM): 94.6%
viability, T/C [13]: 99.1%
viability, T/C [14]: 90%
viability, T/C (second compound 1 µM, first compound 0.000316 µM): 111%
viability, T/C (second compound 1 µM, first compound 0.001 µM): 105%
viability, T/C (second compound 1 µM, first compound 0.00316 µM): 104%
viability, T/C (second compound 1 µM, first compound 0.01 µM): 102%
viability, T/C [19]: 94.3%
viability, T/C [20]: 102%
viability, T/C (second compound 3.16 µM, first compound 0.000316 µM): 85.2%
viability, T/C (second compound 3.16 µM, first compound 0.001 µM): 106%
viability, T/C (second compound 3.16 µM, first compound 0.00316 µM): 103%
viability, T/C (second compound 3.16 µM, first compound 0.01 µM): 96.2%
viability, T/C [25]: 99.4%
viability, T/C [26]: 94.2%
viability, T/C (second compound 10 µM, first compound 0.000316 µM): 93.1%
viability, T/C (second compound 10 µM, first compound 0.001 µM): 122%
viability, T/C (second compound 10 µM, first compound 0.00316 µM): 87.8%
viability, T/C (second compound 10 µM, first compound 0.01 µM): 85.4%
viability, T/C [31]: 101%
viability, T/C [32]: 112%
